Assay results as given in PubChem BioAssay AID248 (DTP/NCI, 2004).
“And” between values parts separate entries of the source, which are not always exact repeats. Equal entries are not always repeated. Inconclusive results and toxic doses are left out. Rule as the data show it: active = T/C of 150% or more; inactive = T/C below 125%.

System: L1210 leukemia ip in BDF1 mice, survival T/C
Assay: NCI In Vivo Anticancer Drug Screen. Data for tumor model L1210 Leukemia (intraperitoneal) in B6D2F1 (BDF1) mice
Conditions: higher = longer survival
Method in brief: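 Value reflects the ratio of survival in compound-treated mice to survival in vehicle-treated controls, with both groups carrying the same transplanted tumor.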

Measured: T/C

O=C1OC(C(O)CO)C(O)=C1O (configuration not stated)
inactive: endpoint: mean survival time, dose: 0.05 mg/kg/injection, schedule: Q01DX005 (iv), vehicle: saline 98 % of control | endpoint: mean survival time, dose: 0.05 mg/kg/injection, schedule: Q01DX009 (oral), vehicle: saline 102 % of control | endpoint: mean survival time, dose: 0.1 mg/kg/injection, schedule: Q01DX005 (iv), vehicle: saline 97 % of control | endpoint: mean survival time, dose: 0.1 mg/kg/injection, schedule: Q01DX009 (ip), vehicle: saline 95 % of control | endpoint: mean survival time, dose: 0.1 mg/kg/injection, schedule: Q01DX009 (oral), vehicle: saline 98 % of control | endpoint: mean survival time, dose: 0.1 mg/kg/injection, schedule: Q01DX009 (sc), vehicle: saline 98 % of control | endpoint: mean survival time, dose: 0.12 mg/kg/injection, schedule: Q01DX009 (ip), vehicle: saline 100 % of control | endpoint: mean survival time, dose: 0.13 mg/kg/injection, schedule: Q01DX009 (ip), vehicle: saline 100 % of control | endpoint: mean survival time, dose: 0.2 mg/kg/injection, schedule: Q01DX005 (iv), vehicle: saline 102 % of control | endpoint: mean survival time, dose: 0.2 mg/kg/injection, schedule: Q01DX009 (im), vehicle: saline 98 % of control | endpoint: mean survival time, dose: 0.2 mg/kg/injection, schedule: Q01DX009 (ip), vehicle: saline 101 % of control | endpoint: mean survival time, dose: 0.39 mg/kg/injection, schedule: Q01DX005 (iv), vehicle: saline 95 % of control | endpoint: mean survival time, dose: 0.39 mg/kg/injection, schedule: Q01DX009 (im), vehicle: saline 95 % of control | endpoint: mean survival time, dose: 0.39 mg/kg/injection, schedule: Q01DX009 (ip), vehicle: saline 95 % of control | endpoint: mean survival time, dose: 0.39 mg/kg/injection, schedule: Q01DX009 (oral), vehicle: saline 98 % of control | endpoint: mean survival time, dose: 0.5 mg/kg/injection, schedule: Q01DX001 (ip), vehicle: saline 97 % of control | endpoint: mean survival time, dose: 0.5 mg/kg/injection, schedule: Q01DX009 (ip), vehicle: saline 96 % of control and 101 % of control | endpoint: mean survival time, dose: 0.78 mg/kg/injection, schedule: Q01DX005 (iv), vehicle: saline 98 % of control | endpoint: mean survival time, dose: 0.78 mg/kg/injection, schedule: Q01DX009 (im), vehicle: saline 93 % of control | endpoint: mean survival time, dose: 0.78 mg/kg/injection, schedule: Q01DX009 (ip), vehicle: saline 102 % of control | endpoint: mean survival time, dose: 0.78 mg/kg/injection, schedule: Q01DX009 (oral), vehicle: saline 99 % of control | endpoint: mean survival time, dose: 1.0 mg/kg/injection, schedule: Q01DX001 (ip), vehicle: saline 100 % of control and 101 % of control | endpoint: mean survival time, dose: 1.0 mg/kg/injection, schedule: Q01DX009 (ip), vehicle: saline 95 % of control and 101 % of control | endpoint: mean survival time, dose: 1.56 mg/kg/injection, schedule: Q01DX005 (iv), vehicle: saline 98 % of control | endpoint: mean survival time, dose: 1.56 mg/kg/injection, schedule: Q01DX009 (im), vehicle: saline 100 % of control | endpoint: mean survival time, dose: 1.56 mg/kg/injection, schedule: Q01DX009 (ip), vehicle: saline 93 % of control | endpoint: mean survival time, dose: 1.56 mg/kg/injection, schedule: Q01DX009 (oral), vehicle: saline 94 % of control | endpoint: mean survival time, dose: 2.0 mg/kg/injection, schedule: Q01DX001 (ip), vehicle: saline 101 % of control and 103 % of control | endpoint: mean survival time, dose: 2.0 mg/kg/injection, schedule: Q01DX009 (ip), vehicle: saline 95 % of control and 97 % of control | endpoint: mean survival time, dose: 3.12 mg/kg/injection, schedule: Q01DX005 (iv), vehicle: saline 95 % of control | endpoint: mean survival time, dose: 3.12 mg/kg/injection, schedule: Q01DX009 (im), vehicle: saline 95 % of control | endpoint: mean survival time, dose: 3.12 mg/kg/injection, schedule: Q01DX009 (oral), vehicle: saline 93 % of control | endpoint: mean survival time, dose: 3.12 mg/kg/injection, schedule: Q01DX009 (sc), vehicle: saline 96 % of control | endpoint: mean survival time, dose: 4.0 mg/kg/injection, schedule: Q01DX001 (ip), vehicle: saline 101 % of control and 104 % of control | endpoint: mean survival time, dose: 4.0 mg/kg/injection, schedule: Q01DX009 (ip), vehicle: saline 94 % of control and 101 % of control | endpoint: mean survival time, dose: 6.25 mg/kg/injection, schedule: Q01DX009 (im), vehicle: saline 98 % of control | endpoint: mean survival time, dose: 6.25 mg/kg/injection, schedule: Q01DX009 (ip), vehicle: saline 95 % of control | endpoint: mean survival time, dose: 6.25 mg/kg/injection, schedule: Q01DX009 (oral), vehicle: saline 98 % of control | endpoint: mean survival time, dose: 6.25 mg/kg/injection, schedule: Q01DX009 (sc), vehicle: saline 102 % of control | endpoint: mean survival time, dose: 8.0 mg/kg/injection, schedule: Q01DX001 (ip), vehicle: saline 100 % of control | endpoint: mean survival time, dose: 8.0 mg/kg/injection, schedule: Q01DX009 (ip), vehicle: saline 95 % of control and 97 % of control | endpoint: mean survival time, dose: 12.5 mg/kg/injection, schedule: Q01DX009 (im), vehicle: saline 100 % of control | endpoint: mean survival time, dose: 12.5 mg/kg/injection, schedule: Q01DX009 (ip), vehicle: saline 102 % of control | endpoint: mean survival time, dose: 12.5 mg/kg/injection, schedule: Q01DX009 (oral), vehicle: saline 100 % of control | endpoint: mean survival time, dose: 12.5 mg/kg/injection, schedule: Q01DX009 (sc), vehicle: saline 94 % of control | endpoint: mean survival time, dose: 16.0 mg/kg/injection, schedule: Q01DX001 (ip), vehicle: saline 94 % of control | endpoint: mean survival time, dose: 16.0 mg/kg/injection, schedule: Q01DX009 (ip), vehicle: saline 101 % of control | endpoint: mean survival time, dose: 25.0 mg/kg/injection, schedule: Q01DX009 (ip), vehicle: saline 95 % of control | endpoint: mean survival time, dose: 25.0 mg/kg/injection, schedule: Q01DX009 (sc), vehicle: saline 102 % of control | endpoint: mean survival time, dose: 32.0 mg/kg/injection, schedule: Q01DX001 (ip), vehicle: saline 97 % of control | endpoint: mean survival time, dose: 32.0 mg/kg/injection, schedule: Q01DX009 (ip), vehicle: saline 103 % of control | endpoint: mean survival time, dose: 37.5 mg/kg/injection, schedule: Q01DX009 (ip), vehicle: saline 98 % of control | endpoint: mean survival time, dose: 50.0 mg/kg/injection, schedule: Q01DX005 (iv), vehicle: saline 102 % of control | endpoint: mean survival time, dose: 50.0 mg/kg/injection, schedule: Q01DX009 (im), vehicle: saline 96 % of control | endpoint: mean survival time, dose: 50.0 mg/kg/injection, schedule: Q01DX009 (ip), vehicle: saline 96 % of control | endpoint: mean survival time, dose: 50.0 mg/kg/injection, schedule: Q01DX009 (oral), vehicle: saline 100 % of control | endpoint: mean survival time, dose: 64.0 mg/kg/injection, schedule: Q01DX001 (ip), vehicle: saline 97 % of control and 101 % of control | endpoint: mean survival time, dose: 100.0 mg/kg/injection, schedule: Q01DX001 (ip), vehicle: saline 96 % of control | endpoint: mean survival time, dose: 100.0 mg/kg/injection, schedule: Q01DX005 (iv), vehicle: saline 97 % of control | endpoint: mean survival time, dose: 100.0 mg/kg/injection, schedule: Q01DX009 (im), vehicle: saline 96 % of control | endpoint: mean survival time, dose: 100.0 mg/kg/injection, schedule: Q01DX009 (ip), vehicle: saline 93 % of control and 98 % of control | endpoint: mean survival time, dose: 100.0 mg/kg/injection, schedule: Q01DX009 (oral), vehicle: saline 103 % of control | endpoint: mean survival time, dose: 100.0 mg/kg/injection, schedule: Q04DX003 (ip), vehicle: saline 96 % of control | endpoint: mean survival time, dose: 150.0 mg/kg/injection, schedule: Q03HX024 (ip), vehicle: saline 93 % of control | endpoint: mean survival time, dose: 200.0 mg/kg/injection, schedule: Q01DX001 (ip), vehicle: saline 104 % of control | endpoint: mean survival time, dose: 200.0 mg/kg/injection, schedule: Q01DX005 (iv), vehicle: saline 102 % of control | endpoint: mean survival time, dose: 200.0 mg/kg/injection, schedule: Q01DX009 (im), vehicle: saline 98 % of control | endpoint: mean survival time, dose: 200.0 mg/kg/injection, schedule: Q01DX009 (ip), vehicle: saline 101 % of control | endpoint: mean survival time, dose: 200.0 mg/kg/injection, schedule: Q01DX009 (oral), vehicle: saline 96 % of control | endpoint: mean survival time, dose: 300.0 mg/kg/injection, schedule: Q01DX009 (ip), vehicle: saline 97 % of control | endpoint: mean survival time, dose: 400.0 mg/kg/injection, schedule: Q01DX001 (ip), vehicle: saline 93 % of control | endpoint: mean survival time, dose: 400.0 mg/kg/injection, schedule: Q01DX005 (iv), vehicle: saline 101 % of control | endpoint: mean survival time, dose: 400.0 mg/kg/injection, schedule: Q01DX009 (im), vehicle: saline 102 % of control | endpoint: mean survival time, dose: 400.0 mg/kg/injection, schedule: Q01DX009 (ip), vehicle: saline 93 % of control and 95 % of control and 102 % of control | endpoint: mean survival time, dose: 400.0 mg/kg/injection, schedule: Q01DX009 (oral), vehicle: saline 98 % of control | endpoint: mean survival time, dose: 800.0 mg/kg/injection, schedule: Q01DX001 (ip), vehicle: saline 94 % of control | endpoint: mean survival time, dose: 800.0 mg/kg/injection, schedule: Q01DX005 (iv), vehicle: saline 98 % of control | endpoint: mean survival time, dose: 800.0 mg/kg/injection, schedule: Q01DX009 (im), vehicle: saline 93 % of control | endpoint: mean survival time, dose: 800.0 mg/kg/injection, schedule: Q01DX009 (oral), vehicle: saline 94 % of control | endpoint: mean survival time, dose: 1200.0 mg/kg/injection, schedule: Q01DX001 (ip), vehicle: saline 100 % of control | endpoint: mean survival time, dose: 1600.0 mg/kg/injection, schedule: Q01DX001 (ip), vehicle: saline 100 % of control | endpoint: mean survival time, dose: 1600.0 mg/kg/injection, schedule: Q01DX009 (im), vehicle: saline 98 % of control | endpoint: mean survival time, dose: 1600.0 mg/kg/injection, schedule: Q01DX009 (oral), vehicle: saline 96 % of control | endpoint: median survival time, dose: 500.0 mg/kg/injection, schedule: Q01DX001 (oral), vehicle: water 100 % of control | endpoint: median survival time, dose: 1000.0 mg/kg/injection, schedule: Q01DX001 (oral), vehicle: water 100 % of control | endpoint: median survival time, dose: 1500.0 mg/kg/injection, schedule: Q01DX001 (oral), vehicle: water 94 % of control | endpoint: median survival time, dose: 3000.0 mg/kg/injection, schedule: Q01DX001 (oral), vehicle: water 100 % of control
